Measured values published in ChEMBL document CHEMBL1201862, “PubChem BioAssay data set” (2004).
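48-hour exposure; five concentrations; linearly interpolated endpoints. GI50 = concentration required for 50% inhibition of growth.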 The source made the active and inactive calls. Cut-off read from the data, not from the text of the source: active = GI50 up to about 1.1 µM and inactive = higher.

Columns and labels:
Assay in all cases: growth of human tumour cells (NCI), 48 h
RXF 393 = test system: RXF 393
SW-620 = test system: SW-620
NCI-H23 = test system: NCI-H23
MDA-N = test system: MDA-N
SNB-19 = test system: SNB-19
SK-MEL-2 = test system: SK-MEL-2
SK-MEL-28 = test system: SK-MEL-28
LOX IMVI = test system: LOX IMVI
K562 = test system: K562
A549 = test system: A549
OVCAR-5 = test system: OVCAR-5
HT-29 = test system: HT-29
RPMI-8226 = test system: RPMI-8226
SR = test system: SR
Malme-3M = test system: Malme-3M
CAKI-1 = test system: CAKI-1
NCI-H522 = test system: NCI-H522
NCI-H460 = test system: NCI-H460
786-0 = test system: 786-0
SN12C = test system: SN12C

Row | SMILES | GI50 (RXF 393) | GI50 (SW-620) | GI50 (NCI-H23) | GI50 (MDA-N) | GI50 (SNB-19) | GI50 (SK-MEL-2) | GI50 (SK-MEL-28) | GI50 (LOX IMVI) | GI50 (K562) | GI50 (A549) | GI50 (OVCAR-5) | GI50 (HT-29) | GI50 (RPMI-8226) | GI50 (SR) | GI50 (Malme-3M) | GI50 (CAKI-1) | GI50 (NCI-H522) | GI50 (NCI-H460) | GI50 (786-0) | GI50 (SN12C)
1 | COC(=O)c1ccccc1CC1Cc2cc3c(cc2C1=O)CCC3 (centres undefined) | 2.56 µM (inactive) | 3.82 µM (inactive) | 19.3 µM (inactive) | 1.93 µM (inactive) | 21.4 µM (inactive) | 7.87 µM (inactive) | 17.8 µM (inactive) | 7.31 µM (inactive) | 3.69 µM (inactive) | 20.3 µM (inactive) | 26.5 µM (inactive) | 8.71 µM (inactive) | 10.5 µM (inactive) | 4.06 µM (inactive) | 7.14 µM (inactive) | 11.1 µM (inactive) | 5.28 µM (inactive) | 29.7 µM (inactive) | 16.6 µM (inactive) | 11.5 µM (inactive)
2 | c1ccc(C2=Nn3c(CCCCCCCCc4nnc5n4N=C(c4ccccc4)CS5)nnc3SC2)cc1 | 20.5 µM (inactive) | > 100 µM (inactive) | > 74.6 µM (inactive) | > 100 µM (inactive) | 18.4 µM (inactive) | 32.1 µM (inactive) | > 100 µM (inactive) | 45.4 µM (inactive) | 33.3 µM (inactive) | > 100 µM (inactive) | > 75.9 µM (inactive) | 19.6 µM (inactive) | > 100 µM (inactive) | > 68.5 µM (inactive) | 28.2 µM (inactive) | 41.2 µM (inactive) | 40.2 µM (inactive) | > 100 µM (inactive) | 14.8 µM (inactive) | > 88.1 µM (inactive)
3 | CN(C)c1ncnc2c1ncn2CCn1cnc2c(N(C)C)ncnc21 | > 100 µM (inactive) | > 100 µM (inactive) | > 100 µM (inactive) | > 100 µM (inactive) | > 100 µM (inactive) | > 100 µM (inactive) | > 100 µM (inactive) | > 100 µM (inactive) |  | > 100 µM (inactive) | > 100 µM (inactive) | > 100 µM (inactive) | > 100 µM (inactive) | 2.28 µM (inactive) | > 100 µM (inactive) | > 100 µM (inactive) | > 100 µM (inactive) | > 100 µM (inactive) | > 100 µM (inactive) | > 100 µM (inactive)
4 | CCNc1nc2ccccc2nc1NCC | > 100 µM (inactive) | > 100 µM (inactive) | > 100 µM (inactive) | > 100 µM (inactive) | > 100 µM (inactive) | > 100 µM (inactive) | > 100 µM (inactive) | > 100 µM (inactive) | > 100 µM (inactive) | > 100 µM (inactive) | > 100 µM (inactive) | > 100 µM (inactive) | > 100 µM (inactive) | > 100 µM (inactive) | > 100 µM (inactive) | > 100 µM (inactive) | > 100 µM (inactive) | > 100 µM (inactive) | > 100 µM (inactive) | > 100 µM (inactive)
5 | N=c1ccn2c(n1)OC1C(OP(=O)(O)O)C(CO)OC12 (centres undefined) | > 100 µM (inactive) | > 47.2 µM (inactive) | 6.93 µM (inactive) | > 83.9 µM (inactive) | 25 µM (inactive) | > 100 µM (inactive) | > 83.4 µM (inactive) | 4.52 µM (inactive) | > 80 µM (inactive) | 0.575 µM (active) | > 100 µM (inactive) | 10.5 µM (inactive) | > 100 µM (inactive) | 3.12 µM (inactive) | > 100 µM (inactive) | > 24.5 µM (inactive) | > 80.4 µM (inactive) | 0.53 µM (active) | 9.77 µM (inactive) | 20.2 µM (inactive)
